*1 amine or outer side, *2 acyl side, *3 side chain or, on linkers, in order; H or OH if unused. Where a SMILES comes first, the peptide text is derived from it. Side-chain parts run from the residue outwards. [ ]: non-standard residue; d: D form. The star is where a group is joined. C20 diacid = O=C(O)CCCCCCCCCCCCCCCCCCC(=O)*; γGlu = O=C(O)[C@H](CCC(=O)[*:2])N[*:1]; εLys = N[C@@H](CCCCN[*:1])C(=O)[*:2]; AEEA = NCCOCCOCC(=O)O; Aib = CC(C)(N)C(=O)O
What was measured:
Assay in all cases: Receptor activation: cAMP production by CRE-luciferase reporter in stably transfected BHK cells
Format in all cases: cell-based
hGIP Receptor = target: T1, hGIP Receptor (Homo sapiens, UniProt P48546); conditions: for hGIP Receptor Relative Potency %: compared to the native ligand for the receptor
T1 construct: expressed in transfected cells; host or cells: baby hamster kidney (BHK) cells, stably transfected, with CRE-firefly luciferase reporter
T1 sequence (P48546 22-466): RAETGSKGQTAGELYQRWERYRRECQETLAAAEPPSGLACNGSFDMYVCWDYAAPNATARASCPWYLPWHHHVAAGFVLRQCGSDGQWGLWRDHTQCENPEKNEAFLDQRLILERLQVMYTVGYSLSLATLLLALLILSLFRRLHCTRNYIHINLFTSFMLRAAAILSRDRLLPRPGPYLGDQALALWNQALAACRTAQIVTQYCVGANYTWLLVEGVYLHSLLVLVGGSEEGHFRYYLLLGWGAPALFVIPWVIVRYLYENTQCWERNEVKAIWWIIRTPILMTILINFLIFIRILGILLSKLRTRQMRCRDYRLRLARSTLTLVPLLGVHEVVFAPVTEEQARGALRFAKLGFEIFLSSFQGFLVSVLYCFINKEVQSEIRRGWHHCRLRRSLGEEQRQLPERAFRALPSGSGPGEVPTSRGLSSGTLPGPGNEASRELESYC
Protocol: (§1) Cyclic AMP (cAMP) production was assessed as a proxy for receptor activation using stably transfected baby hamster kidney (BHK) cell lines expressing the DNA for one individual receptor (GLP-1R, GIPR, GcgR; human- or mouse-specific sequence) and the DNA for the firefly luciferase reporter gene linked to the cAMP response element (CRE). The cells were kept in continuous culture at 37 °C and 5% CO2 in Dulbecco's Modified Eagle Medium (DMEM) supplemented with 10% heat-inactivated fetal bovine serum (HI-FBS), 300 μg/mL hygromycin, and 500 μg/mL G418; for cell lines expressing GIPR, the G418 concentration was lowered to 400 μg/mL. Cells were plated in a 96-well poly-D-lysine-coated plate at 5,000 cells per well in growth media and incubated overnight at 37 °C with 5% CO2. After the overnight incubation, the media was removed, the plate was washed once in Dulbecco's phosphase-buffered saline (DPBS), and 50 μL of assay buffer (DMEM without phenol red, 10 mM HEPES, 1x Glutamax, 1% ovalbumin, 0.1% Pluronic F-68) was added to each well. […] Aliquots of the dilution curves were added to the cell plate in a volume of 50 μL per well resulting in final assay concentrations ranging from 1 × 10^−14 to 1 × 10^−7 M. The assay plate was incubated for 3 h at 37 °C and 5% CO2. After the incubation, the assay plate was washed once with DPBS. A 100 μL aliquot of DPBS was added to each well followed by 100 μL of steadylite plus reagent (PerkinElmer). The assay plate was covered to protect reagent from light, shaken at 250 rpm at room temperature for 30 min, and read in a microtiter plate reader. EC50 values were calculated using Prism software (GraphPad) with the nonlinear regression log(agonist) vs. response. A minimum of two replicates were measured for each sample.

hGLP-1 Receptor = target: T2, hGLP-1 Receptor (Homo sapiens, UniProt P43220); conditions: for hGLP-1 Receptor Relative Potency %: compared to the native ligand for the receptor
T2 construct: expressed in transfected cells; host or cells: baby hamster kidney (BHK) cells, stably transfected, with CRE-firefly luciferase reporter
T2 sequence (P43220 24-463): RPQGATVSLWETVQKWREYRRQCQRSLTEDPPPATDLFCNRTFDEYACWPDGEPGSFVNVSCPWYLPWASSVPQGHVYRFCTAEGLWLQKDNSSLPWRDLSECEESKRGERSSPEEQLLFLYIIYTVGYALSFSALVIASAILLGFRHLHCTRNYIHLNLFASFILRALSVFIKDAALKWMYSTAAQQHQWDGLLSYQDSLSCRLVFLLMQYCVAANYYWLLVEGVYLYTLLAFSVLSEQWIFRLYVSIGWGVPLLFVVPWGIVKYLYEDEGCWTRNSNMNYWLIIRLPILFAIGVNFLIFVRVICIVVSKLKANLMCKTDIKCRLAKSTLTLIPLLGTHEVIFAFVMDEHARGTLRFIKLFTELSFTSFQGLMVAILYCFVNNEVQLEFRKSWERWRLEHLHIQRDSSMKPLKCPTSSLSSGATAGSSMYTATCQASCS
Protocol: as §1

hGcg Receptor = target: T3, hGcg Receptor (Homo sapiens, UniProt P47871); conditions: for hGcg Receptor Relative Potency %: compared to the native ligand for the receptor
T3 construct: expressed in transfected cells; host or cells: baby hamster kidney (BHK) cells, stably transfected, with CRE-firefly luciferase reporter
T3 sequence (P47871 26-477): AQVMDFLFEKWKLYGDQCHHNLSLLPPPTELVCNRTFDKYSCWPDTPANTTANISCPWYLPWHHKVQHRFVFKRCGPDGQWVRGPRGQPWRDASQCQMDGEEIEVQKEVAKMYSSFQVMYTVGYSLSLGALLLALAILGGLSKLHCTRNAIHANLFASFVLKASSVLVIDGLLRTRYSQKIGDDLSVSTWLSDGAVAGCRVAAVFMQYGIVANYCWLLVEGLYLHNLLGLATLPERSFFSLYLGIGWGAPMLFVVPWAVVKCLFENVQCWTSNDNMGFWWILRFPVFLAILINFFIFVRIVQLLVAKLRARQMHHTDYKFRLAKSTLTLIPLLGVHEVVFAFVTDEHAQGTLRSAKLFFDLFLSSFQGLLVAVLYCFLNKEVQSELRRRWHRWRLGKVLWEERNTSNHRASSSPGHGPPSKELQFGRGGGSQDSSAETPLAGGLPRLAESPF
Protocol: as §1

Structure (SMILES) | hGIP Receptor Relative Potency % (hGIP Receptor) [%] | hGLP-1 Receptor Relative Potency % (hGLP-1 Receptor) [%] | hGcg Receptor Relative Potency % (hGcg Receptor) [%] | EC50 (hGIP Receptor; BHK cells expressing human GIPR and CRE-luciferase, 12-point curve, 3 h, 37 °C, assay buffer with 1% ovalbumin, minimum of two replicates) [nM] | EC50 (hGLP-1 Receptor; BHK cells expressing human GLP-1R and CRE-luciferase, 12-point curve, 3 h, 37 °C, assay buffer with 1% ovalbumin, minimum of two replicates) [pM] | EC50 (hGcg Receptor; BHK cells expressing human GcgR and CRE-luciferase, 12-point curve, 3 h, 37 °C, assay buffer with 1% ovalbumin, minimum of two replicates) [nM]
CC[C@H](C)[C@H](NC(=O)[C@H](CO)NC(=O)[C@H](Cc1ccc(O)cc1)NC(=O)[C@H](CC(=O)O)NC(=O)[C@H](CO)NC(=O)[C@@H](NC(=O)[C@H](Cc1ccccc1)NC(=O)[C@@H](NC(=O)CNC(=O)[C@H](CCC(N)=O)NC(=O)C(C)(C)NC(=O)[C@@H](N)Cc1ccc(O)cc1)[C@@H](C)O)[C@@H](C)O)C(=O)N[C@@H](Cc1ccc(O)cc1)C(=O)N[C@@H](CC(C)C)C(=O)N[C@@H](CC(=O)O)C(=O)N[C@@H](CCCCN)C(=O)N[C@@H](CCC(N)=O)C(=O)N[C@@H](C)C(=O)N[C@@H](C)C(=O)NC(C)(C)C(=O)N[C@@H](CCC(=O)O)C(=O)N[C@@H](Cc1ccccc1)C(=O)N[C@H](C(=O)N[C@@H](CC(N)=O)C(=O)N[C@@H](Cc1c[nH]c2ccccc12)C(=O)N[C@@H](CC(C)C)C(=O)N[C@@H](CC(C)C)C(=O)N[C@@H](C)C(=O)NCC(=O)NCC(=O)N1CCC[C@H]1C(=O)N[C@@H](CO)C(=O)N[C@@H](CO)C(=O)NCC(=O)N[C@@H](C)C(=O)N1CCC[C@H]1C(=O)N1CCC[C@H]1C(=O)N1CCC[C@H]1C(=O)N[C@@H](CO)C(=O)N[C@@H](CCCCNC(=O)COCCOCCNC(=O)COCCOCCNC(=O)CC[C@H](NC(=O)CCCCCCCCCCCCCCCCC(=O)O)C(=O)O)C(N)=O)C(C)C [Compound 6] | 23 | 59 | 1 | – | – | –
CC[C@H](C)[C@H](NC(=O)[C@H](CO)NC(=O)[C@H](Cc1ccc(O)cc1)NC(=O)[C@H](CC(=O)O)NC(=O)[C@H](CO)NC(=O)[C@@H](NC(=O)[C@H](Cc1ccccc1)NC(=O)[C@@H](NC(=O)CNC(=O)[C@H](CCC(N)=O)NC(=O)C(C)(C)NC(=O)[C@@H](N)Cc1ccc(O)cc1)[C@@H](C)O)[C@@H](C)O)C(=O)N[C@@H](Cc1ccc(O)cc1)C(=O)N[C@@H](CC(C)C)C(=O)N[C@@H](CCC(=O)O)C(=O)N[C@@H](CCCCNC(=O)COCCOCCNC(=O)COCCOCCNC(=O)CC[C@H](NC(=O)CCCCCCCCCCCCCCCCCCC(=O)O)C(=O)O)C(=O)N[C@@H](CCC(N)=O)C(=O)N[C@@H](C)C(=O)N[C@@H](C)C(=O)NC(C)(C)C(=O)N[C@@H](CCC(=O)O)C(=O)N[C@@H](Cc1ccccc1)C(=O)N[C@H](C(=O)N[C@@H](CCC(N)=O)C(=O)N[C@@H](Cc1c[nH]c2ccccc12)C(=O)N[C@@H](CC(C)C)C(=O)N[C@@H](CC(C)C)C(=O)N[C@@H](CCC(=O)O)C(=O)NCC(=O)NCC(=O)N1CCC[C@H]1C(=O)N[C@@H](CO)C(=O)N[C@@H](CO)C(=O)NCC(=O)N[C@@H](C)C(=O)N1CCC[C@H]1C(=O)N1CCC[C@H]1C(=O)N1CCC[C@H]1C(=O)N[C@@H](CO)C(N)=O)C(C)C [Compound 9] (H-Y[Aib]QGTFTSDYSIYLEK([AEEA-AEEA-γGlu-C20 diacid])QAA[Aib]EFVQWLLEGGPSSGAPPPS-NH2) | 92 | 220 | 5 | 0.0114 | 3.1 | 0.185
CC[C@H](C)[C@H](NC(=O)[C@H](CO)NC(=O)[C@H](Cc1ccc(O)cc1)NC(=O)[C@H](CC(=O)O)NC(=O)[C@H](CO)NC(=O)[C@@H](NC(=O)[C@H](Cc1ccccc1)NC(=O)[C@@H](NC(=O)CNC(=O)[C@H](Cc1c[nH]cn1)NC(=O)C(C)(C)NC(=O)[C@@H](N)Cc1c[nH]cn1)[C@@H](C)O)[C@@H](C)O)C(=O)N[C@@H](Cc1ccc(O)cc1)C(=O)N[C@@H](CC(C)C)C(=O)N[C@@H](CCC(=O)O)C(=O)N[C@@H](CCCCNC(=O)[C@@H](N)CCCCNC(=O)[C@@H](N)CCCCNC(=O)CC[C@H](NC(=O)CCCCCCCCCCCCCCCCCCC(=O)O)C(=O)O)C(=O)N[C@@H](CCC(N)=O)C(=O)N[C@@H](C)C(=O)N[C@@H](C)C(=O)NC(C)(C)C(=O)N[C@@H](CCC(=O)O)C(=O)N[C@@H](Cc1ccccc1)C(=O)N[C@H](C(=O)N[C@@H](CCC(N)=O)C(=O)N[C@@H](Cc1c[nH]c2ccccc12)C(=O)N[C@@H](CC(C)C)C(=O)N[C@@H](CC(C)C)C(=O)N[C@@H](CCC(=O)O)C(=O)NCC(=O)NCC(=O)N1CCC[C@H]1C(=O)N[C@@H](CO)C(=O)N[C@@H](CO)C(=O)NCC(=O)N[C@@H](C)C(=O)N1CCC[C@H]1C(=O)N1CCC[C@H]1C(=O)N1CCC[C@H]1C(=O)N[C@@H](CO)C(N)=O)C(C)C [Compound 13] (H-H[Aib]HGTFTSDYSIYLEK([εLys-εLys-γGlu-C20 diacid])QAA[Aib]EFVQWLLEGGPSSGAPPPS-NH2) | 146 | 340 | 19 | – | – | –
CC[C@H](C)[C@H](NC(=O)[C@H](CO)NC(=O)[C@H](Cc1ccc(O)cc1)NC(=O)[C@H](CC(=O)O)NC(=O)[C@H](CO)NC(=O)[C@@H](NC(=O)[C@H](Cc1ccccc1)NC(=O)[C@@H](NC(=O)CNC(=O)[C@H](Cc1c[nH]cn1)NC(=O)C(C)(C)NC(=O)[C@@H](N)Cc1c[nH]cn1)[C@@H](C)O)[C@@H](C)O)C(=O)N[C@@H](Cc1ccc(O)cc1)C(=O)N[C@@H](CC(C)C)C(=O)N[C@@H](CCC(=O)O)C(=O)N[C@@H](CCCCNC(=O)[C@@H](N)CCCCNC(=O)[C@@H](N)CCCCNC(=O)CC[C@H](NC(=O)CCCCCCCCCCCCCCCCCCC(=O)O)C(=O)O)C(=O)N[C@@H](CCC(N)=O)C(=O)N[C@@H](Cc1ccc(O)cc1)C(=O)N[C@@H](C)C(=O)NC(C)(C)C(=O)N[C@@H](CCC(=O)O)C(=O)N[C@@H](Cc1ccccc1)C(=O)N[C@H](C(=O)N[C@@H](CCC(N)=O)C(=O)N[C@@H](Cc1c[nH]c2ccccc12)C(=O)N[C@@H](CC(C)C)C(=O)N[C@@H](CC(C)C)C(=O)N[C@@H](CCC(=O)O)C(=O)NCC(=O)NCC(=O)N1CCC[C@H]1C(=O)N[C@@H](CO)C(=O)N[C@@H](CO)C(=O)NCC(=O)N[C@@H](C)C(=O)N1CCC[C@H]1C(=O)N1CCC[C@H]1C(=O)N1CCC[C@H]1C(=O)N[C@@H](CO)C(N)=O)C(C)C [Compound 15] (H-H[Aib]HGTFTSDYSIYLEK([εLys-εLys-γGlu-C20 diacid])QYA[Aib]EFVQWLLEGGPSSGAPPPS-NH2) | 135 | 101 | 72 | – | – | –
CC[C@H](C)[C@H](NC(=O)[C@H](CO)NC(=O)[C@H](Cc1ccc(O)cc1)NC(=O)[C@H](CC(=O)O)NC(=O)[C@H](CO)NC(=O)[C@@H](NC(=O)[C@H](Cc1ccccc1)NC(=O)[C@@H](NC(=O)CNC(=O)[C@H](Cc1c[nH]cn1)NC(=O)C(C)(C)NC(=O)[C@@H](N)Cc1c[nH]cn1)[C@@H](C)O)[C@@H](C)O)C(=O)N[C@@H](Cc1ccc(O)cc1)C(=O)N[C@@H](CC(C)C)C(=O)N[C@@H](CCC(=O)O)C(=O)N[C@@H](CCCCNC(=O)[C@@H](N)CCCCNC(=O)[C@@H](N)CCCCNC(=O)CC[C@H](NC(=O)CCCCCCCCCCCCCCCCCCC(=O)O)C(=O)O)C(=O)N[C@@H](CCCCN)C(=O)N[C@@H](C)C(=O)N[C@@H](C)C(=O)NC(C)(C)C(=O)N[C@@H](CCC(=O)O)C(=O)N[C@@H](Cc1ccccc1)C(=O)N[C@H](C(=O)N[C@@H](CCC(N)=O)C(=O)N[C@@H](Cc1c[nH]c2ccccc12)C(=O)N[C@@H](CC(C)C)C(=O)N[C@@H](CC(C)C)C(=O)N[C@@H](CCC(=O)O)C(=O)NCC(=O)NCC(=O)N1CCC[C@H]1C(=O)N[C@@H](CO)C(=O)N[C@@H](CO)C(=O)NCC(=O)N[C@@H](C)C(=O)N1CCC[C@H]1C(=O)N1CCC[C@H]1C(=O)N1CCC[C@H]1C(=O)N[C@@H](CO)C(N)=O)C(C)C [Compound 14] (H-H[Aib]HGTFTSDYSIYLEK([εLys-εLys-γGlu-C20 diacid])KAA[Aib]EFVQWLLEGGPSSGAPPPS-NH2) | 142 | 211 | 69 | – | – | –
